Assay results: article PMC4520593, “Virtual Screening of Peptide and Peptidomimetic Fragments Targeted to Inhibit Bacterial Dithiol Oxidase DsbA” (PLoS ONE, 2015)

Experiments:
[1] = biological target: T1, Oxidized EcDsbA (Escherichia coli, UniProt P0AEG4); assay: Isothermal titration calorimetry of compounds into EcDsbA; assay type: binding; settings: 25°C
T1 construct: made in house
Procedure: Oxidized EcDsbA was diluted to 50 μM in 25 mM HEPES pH 7.4, 50 mM NaCl and 5% DMSO. Compounds were dissolved in 100% DMSO, and then diluted to a final concentration of 2 mM into 25 mM HEPES pH 7.4 50 mM NaCl with a final DMSO concentration of 5%. All experiments were performed using the MicroCal Auto-ITC200 instrument (GE Healthcare, USA), loading 200 μL of EcDsbA in the sample cell and 40 μL of compound in the syringe. Titrations were set up at 25°C with 19 injections of 2 μL separated by 180 seconds and a constant stirring speed of 1000 rpm. A preliminary injection of 0.5 μL was added to avoid slow leakage of titrant into the sample cell before the first 2 μL injection and the corresponding data point was excluded from analysis. Every compound was tested with three technical replicates. An additional titration of compound into buffer only (25 mM HEPES pH 7.4, 50 mM NaCl and 5% DMSO) was performed to measure the background heat of dilution. Analysis was performed with the MicroCal Origin software (version 7.0552).

[2] = biological target: PmDsbA; set-up: method as in PMID 24831013; settings: ITC; cited from earlier work

T1 sequence (P0AEG4 20-208): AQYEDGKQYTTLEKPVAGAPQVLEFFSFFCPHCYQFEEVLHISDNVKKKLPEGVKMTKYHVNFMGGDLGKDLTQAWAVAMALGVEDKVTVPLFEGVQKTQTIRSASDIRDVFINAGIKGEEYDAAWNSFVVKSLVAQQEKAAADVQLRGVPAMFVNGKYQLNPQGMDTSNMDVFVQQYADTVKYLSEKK

In the case of `O=C(NCc1ccccc1)[C@H](Cc1c[nH]c2ccccc12)NC(=O)N1CCOCC1` [Compound 1, (S)-2-[N-(Morpholine-1-carbonyl)amino]-3-(1H-indol-3-yl)-N-(benzyl)propanamide], the “ITC binding to EcDsbA” value ([1]; 50 μM EcDsbA, 2 mM compound in syringe, 5% DMSO) is reported as “little evidence of binding” and the “release of energy for the highest peak (ITC)” value ([1]; titration of EcDsbA) is reported as -0.60 µcal/s.

For PWATCDS, the Kd [2] is listed as 8.3 ± 0.4 µM, the ΔH [2] is listed as -57.3 ± 1.3 kJ/mol and the ΔS [2] is listed as -22.3±1.1 cal.mol^-1.deg^-1.
